# Test results taken from US20180327367A1, “MACROCYCLIC BROAD SPECTRUM ANTIBIOTICS” (priority 2015, published 2018).
# Key:
# [1] = biological target: T1, SpsB (Staphylococcus aureus signal peptidase) (Staphylococcus aureus, UniProt P0A070); assay: cell-based; type: biochemical; details: SpsB IC50, whole-cell S. aureus (USA300 background, overexpressing SpsB) as SpsB source; fluorogenic peptide substrate, kinetic read 30 min
# T1 construct: This assay uses a suspension of Staphylococcus aureus cells as a source of SpsB instead of recombinant SpsB protein; endogenous in cells; host or cells: S. aureus, USA300 background, overexpressing SpsB (whole-cell suspension from frozen pellets)
# T1 sequence (P0A070 whole entry): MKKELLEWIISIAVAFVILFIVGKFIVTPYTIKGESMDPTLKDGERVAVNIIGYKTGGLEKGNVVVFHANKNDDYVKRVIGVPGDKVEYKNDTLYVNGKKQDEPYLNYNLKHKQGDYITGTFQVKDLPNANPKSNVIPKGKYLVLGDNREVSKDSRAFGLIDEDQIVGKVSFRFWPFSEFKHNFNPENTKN
# Outline: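 Cleavage of an internally quenched (Dabcyl)βAla-KPAKAAE(Edans) peptide, added as 20 μM solution mixed 1:1 with cells, was followed for 30 min at 340/490 nm. SpsB came from a suspension of SpsB-overexpressing USA300 S. aureus in Tween-80-containing PBS buffer. Slopes plotted against 3-fold compound dilutions gave IC50.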
# [2] = system: Escherichia coli ATCC 25922; assay: Minimum inhibitory concentration, broth micro-dilution (CLSI), E. coli; type: cell-based; details: Escherichia coli, ATCC25922, 22 h, E. coli ATCC 25922; 35° C., 22 hours; read-out: MIC (μg/mL) E. coli
# [3] = system: Methicillin Resistant Staphylococcus aureus strain USA 300, NRS384; assay: Minimum inhibitory concentration, broth micro-dilution (CLSI), S. aureus; type: cell-based; details: Staphylococcus aureus, MRSA / NRS 384 / USA300, 22 h, MRSA USA 300 NRS384; 35° C., 22 hours; read-out: MIC (μg/mL) S. aureus
# Outline: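 CLSI broth microdilution in cation-adjusted Mueller Hinton Broth with 0.002% Tween-80; inoculum final OD600 0.0005, 22 hours at 35° C. Ten 2-fold dilutions starting at 4 μg/mL (protocol 2) or 0.5 μg/mL (protocol 3).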
# [4] = system: Escherichia coli MC4100 harboring the IMP4213 (E. coli IMP); assay: microbe, parasite or virus in culture; type: cell-based; details: Escherichia coli, 22 h, read-out: MIC (μg/mL) E. coli IMP, E. coli MC4100 IMP4213, increased outer-membrane permeability; 35° C., 22 hours
# Outline: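 Top conc 4 μg/mL (protocol 2) or 0.5 μg/mL (protocol 3), 2-fold series, 10 points. Final OD600 0.0005; 22 h, 35° C. IMP4213 = permeable outer membrane.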
SMILES,IC50 [1] [nM],MIC [2] [µg/mL],MIC [3] [µg/mL],MIC [4] [µg/mL]
CCCCCCc1ccc(C(=O)N[C@@H](CCCCN)C(=O)N(C)[C@@H]2C(=O)N[C@@H](C)C(=O)N[C@H](C(=O)NCC#N)Cc3ccc(OCCN)c(c3)-c3cc2ccc3OCCN)c(C)c1 [Compound 199],0.73,3,0.031,0.031
CCCCCCc1ccc(C(=O)N[C@@H](CCN)C(=O)N(C)[C@@H]2C(=O)N[C@@H](C)C(=O)N[C@H](C(=O)NCC#N)Cc3ccc(OCCN)c(c3)-c3cc2ccc3OCCN)cn1 [Compound 201],1.4,2,0.19,0.031
CCCCCCCc1ccc(C(=O)N[C@@H](CN)C(=O)N(C)[C@@H]2C(=O)N[C@@H](C)C(=O)N[C@H](C(=O)NCC#N)Cc3ccc(OCCN)c(c3)-c3cc2ccc3OCCN)c(C)c1 [Compound 202],0.66,0.25,0.031,0.016
CCCCCCCc1cc(C)c(C(=O)N[C@@H](CCN)C(=O)N(C)[C@@H]2C(=O)N[C@@H](C)C(=O)N[C@H](C(=O)NCC#N)Cc3ccc(OCCN)c(c3)-c3cc2ccc3OCCN)cc1F [Compound 203],0.72,0.13,0.031,0.012
Cc1cc(CCC2CCCCC2)ccc1C(=O)N[C@@H](CCN)C(=O)N(C)[C@@H]1C(=O)N[C@@H](C)C(=O)N[C@H](C(=O)NCC#N)Cc2ccc(OCCN)c(c2)-c2cc1ccc2OCCN [Compound 204],1.2,0.19,0.031,0.0078
CCCCCCCc1cc(C)c(C(=O)N[C@@H](CCN)C(=O)N(C)[C@@H]2C(=O)N[C@@H](C)C(=O)N[C@H](C(=O)NCC#N)Cc3ccc(OCCN)c(c3)-c3cc2ccc3OCCN)c(Cl)c1 [Compound 205],0.85,0.25,0.063,0.016
CCCCc1ccc(C(=O)N[C@@H](CCN)C(=O)N(C)[C@@H]2C(=O)N[C@@H](C)C(=O)N[C@H](C(=O)NCC#N)Cc3ccc(OCCN)c(c3)-c3cc2ccc3OCCN)c(C)c1 [Compound 208],0.99,1.3,0.25,0.029
CCCCCCCCc1ccc(C(=O)N[C@@H](CCN)C(=O)N(C)[C@@H]2C(=O)N[C@@H](C)C(=O)N[C@H](C(=O)NCC#N)Cc3ccc(OCCN)c(c3)-c3cc2ccc3OCCN)c(OC)c1 [Compound 209],0.92,2,0.19,0.094
CCCCCCCCc1ccc(C(=O)N[C@@H](CCN)C(=O)N(C)[C@@H]2C(=O)N[C@@H](C)C(=O)N[C@H](C(=O)NCC#N)Cc3ccc(OCCN)c(c3)-c3cc2ccc3OCCN)c(Cl)c1 [Compound 210],0.8,0.11,0.094,0.029
CCCCCCCCc1ccc(C(=O)N[C@@H](CCN)C(=O)N(C)[C@@H]2C(=O)N[C@@H](C)C(=O)N[C@H](C(=O)NCC#N)Cc3ccc(OCCN)c(c3)-c3cc2ccc3OCCN)c(S(C)(=O)=O)c1 [Compound 212],0.62,2,0.031,0.047
CCCCCCCCc1nc(C)c(C(=O)N[C@@H](CCN)C(=O)N(C)[C@@H]2C(=O)N[C@@H](C)C(=O)N[C@H](C(=O)NCC#N)Cc3ccc(OCCN)c(c3)-c3cc2ccc3OCCN)s1 [Compound 213],0.64,2,0.047,0.023
Cc1cc(C2CCC2)ccc1C(=O)N[C@@H](CCN)C(=O)N(C)[C@@H]1C(=O)N[C@@H](C)C(=O)N[C@H](C(=O)NCC#N)Cc2ccc(OCCN)c(c2)-c2cc1ccc2OCCN [Compound 214],0.98,3,0.25,0.031
Cc1cc(C2CCCC2)ccc1C(=O)N[C@@H](CCN)C(=O)N(C)[C@@H]1C(=O)N[C@@H](C)C(=O)N[C@H](C(=O)NCC#N)Cc2ccc(OCCN)c(c2)-c2cc1ccc2OCCN [Compound 215],0.97,1.8,0.19,0.039
Cc1cc(C2CC2)ccc1C(=O)N[C@@H](CCN)C(=O)N(C)[C@@H]1C(=O)N[C@@H](C)C(=O)N[C@H](C(=O)NCC#N)Cc2ccc(OCCN)c(c2)-c2cc1ccc2OCCN [Compound 216],3.3,8,1,0.25
